In patent publication US20070185072A1, “Nitrogeneous polycyclic derivatives useful as chelators of metal ions and their applications” (priority 2003, published 2007) one finds plaque loading increase and plaque loading reduction data, which are given here for three compounds.

The assay relates to double transgenic mice over-expressing human APP (V717I) and human PS1 (A242E). Put plainly: Amyloid plaque loading (thioflavin S staining of brain sections) in double transgenic mice model of Alzheimer's disease. Format: in vivo. Particulars: vs control. The procedure:
Mice over-expressing human APP with the London mutation (V717I) and human PS1 bearing the A242E mutation (APP and PS1 stand for amyloid protein precursor and preseniline 1, respectively) were used.
Three molecules were evaluated on these double transgenic mice (6-month old): 3-Propyl-Clip-Phen (molecule B in the histogram below), Cyclo-bi-Phen (molecule G) and Clioquinol (molecule W) (C stands for control, only DMSO diluted in water).
The molecules were initially diluted in DMSO in the presence of 2.6 equivalents of HCl and then in water and the animals were treated by i.p. injection with the two Phen derivatives at 5 mg/kg or at 10 mg/kg for Clioquinol, three times per week (monday, Wednesday and friday) during 9 consecutive weeks. 9 animals were treated for each drugs (control also included 9 animals).
This method is used to quantify the “old” plaques.

Where [1] appears, read: 5 mg/kg i.p. three times per week for 9 weeks.

In the case of `c1cnc2c(c1)ccc1cc(OCCCOc3cnc4c(ccc5cccnc54)c3)cnc12` [3-Propyl-Clip-Phen], the plaque loading increase under setting [1] turned out to be 16%.

In turn, `Oc1c(I)cc(Cl)c2cccnc12` [Clioquinol, 5-chloro-7-iodo-8-hydroxyquinoline] registered a plaque loading reduction (10 mg/kg i.p. three times per week for 9 weeks) of 28%.

On to `c1nc2c3ccc4cc(cnc42)OCCCOc2cnc4c(ccc5cc(cnc54)OCCCOc1c3)c2` [Cyclo-bi-Phen], for which, under setting [1], the plaque loading reduction worked out at 38%.
